According to PubChem BioAssay (NCI):
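Step 1: Grow cells in 96-well plates. Step 2: Expose to compound for 48 hours at 5 concentrations. Step 3: Interpolate endpoints linearly; if unreached, use highest concentration. TGI denotes the concentration required for complete inhibition of growth.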

Legend:
Experiment in all cases: NCI tumour cell line growth inhibition, 48 h
[1] = system: PC-3 prostate
[2] = system: K-562 leukemia
[3] = system: 786-0 renal
[4] = system: SR leukemia
[5] = system: SNB-75 CNS
[6] = system: RXF 393 renal
[7] = system: U251 CNS
[8] = system: SF-539 CNS
[9] = system: OVCAR-3 ovarian
[10] = system: SN12C renal
[11] = system: KM12 colon
[12] = system: OVCAR-4 ovarian
[13] = system: SK-MEL-28 melanoma
[14] = system: TK-10 renal
[15] = system: HS 578T breast
[16] = system: HOP-92 NSCLC
[17] = system: SF-295 CNS
[18] = system: A498 renal
[19] = system: MOLT-4 leukemia
[20] = system: MDA-MB-231 breast
[21] = system: NCI-H460 lung
[22] = system: MDA-MB-435
[23] = system: IGROV1 ovarian
[24] = system: SNB-19 CNS
[25] = system: UO-31 renal
[26] = system: NCI/ADR-RES ovarian
[27] = system: COLO 205 colon
[28] = system: MCF7 breast
[29] = system: OVCAR-8 ovarian
[30] = system: CCRF-CEM leukemia
[31] = system: M14 melanoma
[32] = system: HCT-15 colon
[33] = system: HT29 colon
[34] = system: A549 NSCLC
[35] = system: SW-620 colon
[36] = system: SK-OV-3 ovarian
[37] = system: UACC-257 melanoma
[38] = system: BT-549 breast
[39] = system: CAKI-1 renal
[40] = system: OVCAR-5 ovarian
[41] = system: HL-60(TB) leukemia
[42] = system: EKVX NSCLC
[43] = system: SK-MEL-5 melanoma
[44] = system: UACC-62 melanoma
[45] = system: LOX IMVI melanoma
[46] = system: MDA-N
[47] = system: ACHN renal
[48] = system: NCI-H226 lung
[49] = system: NCI-H23 lung
[50] = system: MALME-3M melanoma
[51] = system: HOP-62 NSCLC
[52] = system: SK-MEL-2 melanoma
[53] = system: HCT-116 colon
[54] = system: NCI-H522 lung
[55] = system: RPMI-8226 leukemia
[56] = system: DU-145 prostate
[57] = system: SF-268 CNS

Work on CC1CCC2C(C)(C)CC3(C)CCC1C23O (stereo unspecified) yielded a TGI [1] of 25.7 µM, a TGI [2] of 40.9 µM and a TGI [3] of 29 µM. For the same compound, the TGI [4] was 29.1 µM, the TGI [5] was 48.4 µM and the TGI [6] was 30.8 µM. The TGI [7] was 29.5 µM, the TGI [8] was 31.6 µM and the TGI [9] was 29.9 µM. For the same compound, the TGI [10] was 32.6 µM, the TGI [11] was 29.1 µM and the TGI [12] was 49.6 µM. The TGI [13] was 29.8 µM, the TGI [14] was 31.6 µM and the TGI [15] was 30.3 µM. The TGI [16] was 26.4 µM, the TGI [17] was 25.8 µM and the TGI [18] was 36.7 µM. For the same compound, the TGI [19] was 28 µM, the TGI [20] was 29.7 µM and the TGI [21] was 30.7 µM. The TGI [22] was 30.5 µM, the TGI [23] was 29.4 µM and the TGI [24] was greater than 100 µM. It also gave a TGI [25] of 30 µM, a TGI [26] of 28 µM and a TGI [27] of 33.2 µM. It also gave a TGI [28] of 29.3 µM, a TGI [29] of 34.4 µM and a TGI [30] of 21.7 µM. It also gave a TGI [31] of 29.4 µM, a TGI [32] of 30.6 µM and a TGI [33] of 29.9 µM. The TGI [34] was 37 µM, the TGI [35] was 30.2 µM and the TGI [36] was 89.2 µM. It also gave a TGI [37] of 29.7 µM, a TGI [38] of 32 µM and a TGI [39] of 27.2 µM. It also gave a TGI [40] of 34.9 µM, a TGI [41] of 5.57 µM and a TGI [42] of 28.3 µM. The TGI [43] was 27.7 µM, the TGI [44] was 28.2 µM and the TGI [45] was 28.9 µM. The TGI [46] was 25.3 µM, the TGI [47] was 29.7 µM and the TGI [48] was 29.9 µM. The TGI [49] was 29.6 µM, the TGI [50] was 26.2 µM and the TGI [51] was 30.6 µM. It also gave a TGI [52] of 27.3 µM and a TGI [53] of 27.9 µM.

For CC(C)=CCNc1ncnc2c1c(C#N)cn2C1OC(CO)C(O)C1O (stereo unspecified), the TGI [1] was greater than 100 µM, the TGI [2] was greater than 100 µM and the TGI [3] was greater than 100 µM. For the same compound, the TGI [4] was greater than 100 µM, the TGI [5] was greater than 100 µM and the TGI [6] was greater than 100 µM. The TGI [7] was greater than 100 µM, the TGI [8] was greater than 100 µM and the TGI [9] was 77.1 µM. It also gave a TGI [10] greater than 100 µM, a TGI [11] greater than 100 µM and a TGI [12] of 23.3 µM. The TGI [13] was greater than 100 µM, the TGI [14] was 24.7 µM and the TGI [15] was greater than 100 µM. It also gave a TGI [16] greater than 100 µM, a TGI [17] greater than 100 µM and a TGI [18] greater than 72.6 µM. The TGI [19] was greater than 100 µM, the TGI [20] was greater than 100 µM and the TGI [21] was 33.6 µM. The TGI [22] was greater than 100 µM, the TGI [23] was greater than 100 µM and the TGI [24] was greater than 100 µM. It also gave a TGI [54] greater than 50.3 µM, a TGI [25] greater than 100 µM and a TGI [26] greater than 100 µM. For the same compound, the TGI [27] was 6.76 µM, the TGI [29] was greater than 100 µM and the TGI [30] was 81.5 µM. For the same compound, the TGI [31] was greater than 100 µM, the TGI [32] was greater than 100 µM and the TGI [33] was greater than 100 µM. For the same compound, the TGI [34] was greater than 100 µM, the TGI [35] was greater than 100 µM and the TGI [36] was greater than 100 µM. The TGI [37] was greater than 100 µM, the TGI [38] was greater than 100 µM and the TGI [39] was greater than 100 µM. For the same compound, the TGI [40] was greater than 100 µM, the TGI [41] was 67.9 µM and the TGI [42] was greater than 100 µM. For the same compound, the TGI [43] was greater than 100 µM, the TGI [55] was greater than 72.9 µM and the TGI [56] was greater than 100 µM. The TGI [44] was greater than 100 µM, the TGI [45] was greater than 100 µM and the TGI [46] was greater than 100 µM. The TGI [47] was greater than 100 µM, the TGI [48] was greater than 100 µM and the TGI [49] was greater than 100 µM. For the same compound, the TGI [50] was greater than 100 µM, the TGI [51] was greater than 100 µM and the TGI [52] was greater than 100 µM. It also gave a TGI [53] greater than 100 µM and a TGI [57] greater than 100 µM.

O=c1cc(-c2ccccc2)nc(-n2[nH]c3c(c2=O)CCCC3)[nH]1 showed a TGI [1] greater than 100 µM, a TGI [2] greater than 100 µM and a TGI [3] of 46.3 µM. The TGI [4] was greater than 100 µM, the TGI [5] was 14.2 µM and the TGI [6] was 25.5 µM. The TGI [7] was greater than 100 µM, the TGI [8] was 44.6 µM and the TGI [10] was greater than 100 µM. For the same compound, the TGI [11] was greater than 100 µM, the TGI [12] was 61.9 µM and the TGI [13] was 28.9 µM. It also gave a TGI [14] greater than 100 µM, a TGI [15] greater than 100 µM and a TGI [16] greater than 100 µM. It also gave a TGI [17] greater than 100 µM, a TGI [18] greater than 100 µM and a TGI [19] greater than 100 µM. It also gave a TGI [20] greater than 100 µM, a TGI [21] greater than 100 µM and a TGI [22] of 89.9 µM. The TGI [23] was greater than 100 µM, the TGI [24] was greater than 100 µM and the TGI [54] was 69.6 µM. The TGI [25] was greater than 100 µM, the TGI [27] was 40.8 µM and the TGI [28] was greater than 100 µM. For the same compound, the TGI [30] was 35.8 µM, the TGI [31] was 26.8 µM and the TGI [32] was greater than 100 µM. The TGI [33] was 33.8 µM, the TGI [34] was greater than 100 µM and the TGI [35] was greater than 100 µM. For the same compound, the TGI [36] was greater than 100 µM, the TGI [37] was greater than 100 µM and the TGI [38] was greater than 100 µM. For the same compound, the TGI [39] was greater than 100 µM, the TGI [40] was greater than 100 µM and the TGI [41] was greater than 100 µM. The TGI [42] was greater than 100 µM, the TGI [43] was greater than 100 µM and the TGI [55] was 65.7 µM. For the same compound, the TGI [56] was 3.97 µM, the TGI [44] was 15.6 µM and the TGI [46] was greater than 100 µM. For the same compound, the TGI [47] was 80.1 µM, the TGI [48] was greater than 100 µM and the TGI [49] was greater than 100 µM. For the same compound, the TGI [50] was greater than 100 µM, the TGI [52] was 29.4 µM and the TGI [53] was 18.6 µM. For the same compound, the TGI [57] was greater than 100 µM.
